The test concerns the target T1, Cathepsin S (Homo sapiens, UniProt P25774).
T1 construct: gene CTSS
Nature of the test: fluorometric cathepsin S inhibitor assay kit (ab185437), Z-VVR-AFC substrate, kinetic mode. Type of test: biochemical.

Where two headings read alike, the source gives them in different places.

What is called IC50 is the concentration needed to halve the response being measured.

T1 sequence (P25774 115-331): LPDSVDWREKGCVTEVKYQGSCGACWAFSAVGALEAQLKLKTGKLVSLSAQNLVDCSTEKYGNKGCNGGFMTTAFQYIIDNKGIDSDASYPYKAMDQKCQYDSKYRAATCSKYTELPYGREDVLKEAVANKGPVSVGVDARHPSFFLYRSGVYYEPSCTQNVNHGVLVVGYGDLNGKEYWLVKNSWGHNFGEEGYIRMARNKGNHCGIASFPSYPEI

In the case of `C[C@H]1[C@H](C)CC[C@]2(C(=O)O)CC[C@]3(C)C(=CC[C@@H]4[C@@]5(C)C[C@@H](O)[C@H](O)[C@@](C)(CO)[C@@H]5CC[C@]43C)[C@H]12` [asiatic acid], half-maximal inhibition (IC50) was put at 14.6 µM.
Turning to asiaticoside A, the concentration for half-maximal inhibition (IC50) (read-out: IC50) is 0.667 µM.

For the origin of these results see PMC10676574, “In-silico and in-vitro screening of Asiatic acid and Asiaticoside A against Cathepsin S enzyme” (BMC Pharmacology & Toxicology, 2023).
